Test results reported in article PMC5502391 (Chemical Science, 2015).

Target: avidin-bound TOPI-5 (Gallus gallus, UniProt P02701)
Assay: Displacement assay, TOPI-5–avidin complex
Type: binding
Conditions: complex 90 nM, compound 50 µM

avidin-bound TOPI-5, sequence (P02701 25-152): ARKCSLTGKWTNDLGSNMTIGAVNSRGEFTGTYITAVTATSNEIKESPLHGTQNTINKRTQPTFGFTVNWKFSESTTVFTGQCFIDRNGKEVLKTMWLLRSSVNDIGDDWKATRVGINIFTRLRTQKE

O=C(O)CCCC[C@@H]1SC[C@@H]2NC(=O)N[C@@H]21 [biotin]
displacement of avidin-bound TOPI-5: displacement
